Values belong to the compound of their own block, whether it stands above or below them. Calls of active or inactive are those of the source.
What was measured:
[1] = target: Serine/threonine-protein kinase pim-1 (Homo sapiens, UniProt P11309); type: functional
[2] = target: Cell division cycle 7-related protein kinase (Homo sapiens, UniProt O00311); type: functional;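 also: value obtained from a kinome-wide kinase panel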
[3] = target: Homeodomain-interacting protein kinase 2 (Homo sapiens, UniProt Q9H2X6); type: functional;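 also: measured within a kinome-wide kinase profiling panel, HIPK2 being one panel member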
[4] = target: Interleukin-1 receptor-associated kinase 4 (Homo sapiens, UniProt Q9NWZ3); type: functional
[5] = target: Glycogen synthase kinase-3 beta (Homo sapiens, UniProt P49841); type: functional;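 also: value comes from a broad kinome profiling panel, with GSK3B as the panel member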
[6] = target: cAMP-dependent protein kinase catalytic subunit alpha (Homo sapiens, UniProt P17612); type: functional
[7] = target: Dual specificity protein kinase CLK4 (Homo sapiens, UniProt Q9HAZ1); type: functional
[8] = target: Mitogen-activated protein kinase kinase kinase kinase 4 (Homo sapiens, UniProt O95819); type: functional
[9] = target: T1, Sentrin-specific protease 8 (Homo sapiens, UniProt Q96LD8); test: inhibition of human SENP8 cleavage activity – biochemical, luminescence, SAR follow-up (AID 504501); type: functional
T1 sequence (Q96LD8 whole entry): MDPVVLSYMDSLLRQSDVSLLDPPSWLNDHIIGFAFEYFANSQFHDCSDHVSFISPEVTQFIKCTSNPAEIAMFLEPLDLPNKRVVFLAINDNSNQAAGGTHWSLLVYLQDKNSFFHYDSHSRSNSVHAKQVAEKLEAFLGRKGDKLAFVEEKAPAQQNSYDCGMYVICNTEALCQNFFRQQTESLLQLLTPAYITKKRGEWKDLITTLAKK

Caspase-3 = target: T2, Caspase-3 (Homo sapiens, UniProt P42574); test: SAR Analysis of small molecule inhibitors of Sentrin-specific proteases (SENPs) using a Caspase-3 Selectivity assay. [Related pubchem assays (depositor defined):AID2540, AID2599, AID434973, AID489001]; type: functional
T2 sequence (P42574 whole entry): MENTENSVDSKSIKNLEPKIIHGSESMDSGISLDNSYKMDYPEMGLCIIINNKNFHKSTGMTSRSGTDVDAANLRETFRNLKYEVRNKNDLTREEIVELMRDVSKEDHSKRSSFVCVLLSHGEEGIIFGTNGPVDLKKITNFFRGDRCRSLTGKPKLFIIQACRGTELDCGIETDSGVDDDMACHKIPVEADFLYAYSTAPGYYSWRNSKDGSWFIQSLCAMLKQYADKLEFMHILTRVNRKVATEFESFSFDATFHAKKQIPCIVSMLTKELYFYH

[10] = target: T3, Sentrin-specific protease 6 (Homo sapiens, UniProt Q9GZR1); test: SAR Analysis of small molecule inhibitors of Sentrin-specific protease 6 (SENP6) using a Luminescent assay. [Related pubchem assays (depositor defined):AID2582, AID2599]; type: functional
T3 sequence (Q9GZR1 whole entry): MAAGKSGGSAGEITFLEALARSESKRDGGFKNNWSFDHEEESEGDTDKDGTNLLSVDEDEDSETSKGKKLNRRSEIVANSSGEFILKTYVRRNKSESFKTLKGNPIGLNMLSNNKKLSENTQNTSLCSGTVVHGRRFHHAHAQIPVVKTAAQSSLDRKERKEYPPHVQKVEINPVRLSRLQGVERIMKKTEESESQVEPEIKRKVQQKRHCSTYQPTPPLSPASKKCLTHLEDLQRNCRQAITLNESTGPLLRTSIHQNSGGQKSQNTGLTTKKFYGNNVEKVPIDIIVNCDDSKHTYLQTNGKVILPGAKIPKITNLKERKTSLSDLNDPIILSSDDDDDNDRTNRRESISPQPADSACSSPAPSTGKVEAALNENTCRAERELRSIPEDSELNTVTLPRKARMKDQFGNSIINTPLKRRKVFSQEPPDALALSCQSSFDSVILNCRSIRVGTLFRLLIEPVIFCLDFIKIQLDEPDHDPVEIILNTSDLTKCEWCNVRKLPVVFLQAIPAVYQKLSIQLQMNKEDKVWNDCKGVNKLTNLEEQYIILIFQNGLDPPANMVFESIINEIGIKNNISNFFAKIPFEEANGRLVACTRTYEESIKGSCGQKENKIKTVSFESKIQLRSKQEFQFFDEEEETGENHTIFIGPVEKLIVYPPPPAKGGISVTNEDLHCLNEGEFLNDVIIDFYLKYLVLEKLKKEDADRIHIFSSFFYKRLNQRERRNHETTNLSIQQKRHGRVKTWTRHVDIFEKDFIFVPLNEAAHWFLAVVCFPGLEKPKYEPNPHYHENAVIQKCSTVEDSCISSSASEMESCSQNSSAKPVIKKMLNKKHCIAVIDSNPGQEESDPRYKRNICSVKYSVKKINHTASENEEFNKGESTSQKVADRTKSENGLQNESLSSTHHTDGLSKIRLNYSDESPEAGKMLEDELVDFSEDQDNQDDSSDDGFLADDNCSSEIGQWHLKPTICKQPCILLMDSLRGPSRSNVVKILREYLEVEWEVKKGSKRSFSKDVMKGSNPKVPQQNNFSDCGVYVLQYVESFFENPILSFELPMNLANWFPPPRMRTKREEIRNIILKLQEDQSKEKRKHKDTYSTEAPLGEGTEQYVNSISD

[11] = target: T4, Sentrin-specific protease 7 (Homo sapiens, UniProt Q9BQF6); test: inhibition of human SENP7 cleavage activity – biochemical, luminescence, SAR follow-up (AID 504497); type: functional
T4 sequence (Q9BQF6 whole entry): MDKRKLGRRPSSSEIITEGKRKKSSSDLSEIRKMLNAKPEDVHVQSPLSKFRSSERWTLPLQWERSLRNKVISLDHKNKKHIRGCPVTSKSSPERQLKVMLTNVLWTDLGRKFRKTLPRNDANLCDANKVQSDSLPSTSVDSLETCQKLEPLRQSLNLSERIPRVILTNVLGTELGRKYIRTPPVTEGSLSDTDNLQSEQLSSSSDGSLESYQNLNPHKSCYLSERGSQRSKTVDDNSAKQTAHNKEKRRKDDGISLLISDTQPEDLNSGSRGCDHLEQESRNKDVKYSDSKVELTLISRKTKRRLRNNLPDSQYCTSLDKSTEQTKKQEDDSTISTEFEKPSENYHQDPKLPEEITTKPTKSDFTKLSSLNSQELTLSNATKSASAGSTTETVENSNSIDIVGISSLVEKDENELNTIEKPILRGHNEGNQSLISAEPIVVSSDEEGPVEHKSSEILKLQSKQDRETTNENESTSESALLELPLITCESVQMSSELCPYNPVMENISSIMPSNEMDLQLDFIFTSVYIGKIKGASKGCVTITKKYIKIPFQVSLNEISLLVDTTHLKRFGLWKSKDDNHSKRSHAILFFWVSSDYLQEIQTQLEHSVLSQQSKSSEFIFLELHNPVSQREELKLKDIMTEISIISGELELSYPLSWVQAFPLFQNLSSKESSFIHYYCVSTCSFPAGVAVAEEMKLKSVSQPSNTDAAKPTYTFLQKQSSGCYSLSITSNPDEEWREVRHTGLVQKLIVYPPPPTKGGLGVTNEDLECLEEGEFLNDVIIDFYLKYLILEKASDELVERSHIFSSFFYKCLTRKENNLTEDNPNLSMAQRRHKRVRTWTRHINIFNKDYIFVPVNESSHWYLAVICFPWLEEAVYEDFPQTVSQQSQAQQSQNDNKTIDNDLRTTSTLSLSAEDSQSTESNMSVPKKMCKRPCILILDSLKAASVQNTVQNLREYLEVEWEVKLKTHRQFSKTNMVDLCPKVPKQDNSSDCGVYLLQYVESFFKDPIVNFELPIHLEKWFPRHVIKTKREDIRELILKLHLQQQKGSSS

[12] = target: Tyrosine-protein kinase JAK2 (Homo sapiens, UniProt O60674); type: functional;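 also: JAK2 tested as one member of a kinase panel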
[13] = target: Vascular endothelial growth factor receptor 2 (Homo sapiens, UniProt P35968); type: functional
[14] = target: cAMP-dependent protein kinase catalytic subunit PRKX (Homo sapiens, UniProt P51817); type: functional
[15] = target: Leucine-rich repeat serine/threonine-protein kinase 2 (Homo sapiens, UniProt Q5S007); type: functional;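 also: value from a broad kinome-wide panel profiling study in which LRRK2 was one of the kinases tested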
[16] = target: Leukocyte tyrosine kinase receptor (Homo sapiens, UniProt P29376); test: Navigating the Kinome. Panel member name: LTK; type: functional
[17] = target: Melanin-concentrating hormone receptor 1 (Homo sapiens, UniProt Q99705); test: Late-stage fluorescence-based counterscreen for antagonists of the G-protein coupled receptor 7 (GPR7): cell-based dose response assay to identify antagonists of the melanin-concentrating hormone receptor 1 (MCHR1) Set 6.; type: functional
[18] = target: T5, Neuropeptides B/W receptor type 1 (Homo sapiens, UniProt P48145); test: human NPBW1 receptor blockade, IC50 – cell-based, fluorescence, dose response, set 6, late-stage follow-up (AID 588583); type: functional
T5 sequence (P48145 whole entry): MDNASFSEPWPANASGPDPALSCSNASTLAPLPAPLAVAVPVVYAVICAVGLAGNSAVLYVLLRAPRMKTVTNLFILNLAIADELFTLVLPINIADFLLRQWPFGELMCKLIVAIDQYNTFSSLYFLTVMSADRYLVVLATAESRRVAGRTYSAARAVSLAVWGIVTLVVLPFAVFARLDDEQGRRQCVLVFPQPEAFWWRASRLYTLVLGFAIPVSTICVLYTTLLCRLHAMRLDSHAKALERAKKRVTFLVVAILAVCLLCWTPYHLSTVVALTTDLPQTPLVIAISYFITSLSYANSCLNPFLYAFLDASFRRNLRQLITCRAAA

LIM domain kinase 1 = LIM domain kinase 1 (Homo sapiens, UniProt P53667); test: Navigating the Kinome. Panel member name: LIMK1; type: functional
[19] = target: Serine/threonine-protein kinase Chk1 (Homo sapiens, UniProt O14757); type: functional;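 also: measured as one member of a kinome-wide kinase profiling panel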
HEK293 = test: EBV LMP1 TES2 canonical NF-kB signalling blockers – cell-based, HEK293, luciferase, cherry-pick, dose response (AID 588343); type: functional; settings: Homo sapiens
[20] = target: Latent membrane protein 1 (Human herpesvirus 4 (strain B95-8), UniProt P03230); test: LMP1 TES1 pathway selectivity over dsRED control – imaging, HEK293T, dual-color eGFP/dsRED, cherry-picks, selectivity assay for LMP1 NF-kB inhibitor project, dose response (AID 588398); type: functional, cell-based
CHO = CHO cell viability loss, potency – luminescence, cytotoxicity control for TLR9-MyD88 binding inhibitor project, dose response (AID 588339); type: functional, cell-based, hamster; settings: Cricetulus griseus;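 also: CHO cells stably coexpressing TLR9 and MyD88 fusions from primary screen; compound exposure lasted 48 hours before viability readout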
Beta Lactamase = Beta Lactamase (Pseudomonas aeruginosa, UniProt Q932Y6); test: BLA reporter interference, concentration series – BLA reporter cells, FRET fluorescence, artefact control for TLR9-MyD88 binding inhibitor project, dose response (AID 588341); type: cell-based;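 also: cell based assay in CHO-K1 cells stably expressing beta-lactamase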
[21] = target: T6, Corticotropin-releasing factor receptor 2/Corticotropin-releasing factor-binding protein (Homo sapiens, UniProt P24387+Q13324); test: activators of CRF receptor 2 with binding protein – uHTS hits, confirmation (AID 602473); type: functional; settings: read-out: EC50_Mean
T6 sequence (Q13324 whole entry): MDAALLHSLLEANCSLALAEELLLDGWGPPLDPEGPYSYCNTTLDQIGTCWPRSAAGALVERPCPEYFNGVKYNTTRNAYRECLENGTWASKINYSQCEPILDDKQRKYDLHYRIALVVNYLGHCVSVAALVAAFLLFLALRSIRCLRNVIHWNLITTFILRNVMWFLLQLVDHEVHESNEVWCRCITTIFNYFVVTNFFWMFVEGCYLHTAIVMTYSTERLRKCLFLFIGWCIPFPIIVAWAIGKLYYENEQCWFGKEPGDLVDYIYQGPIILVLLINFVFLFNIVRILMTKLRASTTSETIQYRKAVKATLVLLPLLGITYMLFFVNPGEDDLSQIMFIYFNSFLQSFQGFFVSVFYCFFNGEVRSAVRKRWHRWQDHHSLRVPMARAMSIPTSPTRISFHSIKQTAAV
T6 sequence (P24387 whole entry): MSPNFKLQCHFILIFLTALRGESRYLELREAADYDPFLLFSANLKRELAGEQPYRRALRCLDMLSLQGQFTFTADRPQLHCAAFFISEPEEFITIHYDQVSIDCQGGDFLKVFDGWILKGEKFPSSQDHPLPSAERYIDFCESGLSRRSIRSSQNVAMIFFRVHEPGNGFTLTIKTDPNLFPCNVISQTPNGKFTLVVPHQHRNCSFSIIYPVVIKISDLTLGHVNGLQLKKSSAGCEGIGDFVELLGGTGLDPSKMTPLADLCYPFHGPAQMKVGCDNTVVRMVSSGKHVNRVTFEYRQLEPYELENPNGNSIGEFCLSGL

Melanocortin receptor 4 = Melanocortin receptor 4 (Homo sapiens, UniProt P32245); test: inhibitors of MC4R cAMP signaling – cell-based, TR-FRET, biased antagonists, dose response (AID 602298); type: functional;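 also: antagonist potency against agonist-stimulated cAMP production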
[22] = cAMP pathway inhibition in counterscreen cell line – TR-FRET cAMP detection, counter-screen for MC4R biased antagonist project, dose response (AID 602305); type: functional, cell-based;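 also: U2OS cells stimulated with forskolin near its EC80 as the cAMP inducer; potency is for inhibition of forskolin-stimulated cAMP signaling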

Chain of Mitogen-activated protein kinase kinase kinase kinase 4 (O95819 whole entry): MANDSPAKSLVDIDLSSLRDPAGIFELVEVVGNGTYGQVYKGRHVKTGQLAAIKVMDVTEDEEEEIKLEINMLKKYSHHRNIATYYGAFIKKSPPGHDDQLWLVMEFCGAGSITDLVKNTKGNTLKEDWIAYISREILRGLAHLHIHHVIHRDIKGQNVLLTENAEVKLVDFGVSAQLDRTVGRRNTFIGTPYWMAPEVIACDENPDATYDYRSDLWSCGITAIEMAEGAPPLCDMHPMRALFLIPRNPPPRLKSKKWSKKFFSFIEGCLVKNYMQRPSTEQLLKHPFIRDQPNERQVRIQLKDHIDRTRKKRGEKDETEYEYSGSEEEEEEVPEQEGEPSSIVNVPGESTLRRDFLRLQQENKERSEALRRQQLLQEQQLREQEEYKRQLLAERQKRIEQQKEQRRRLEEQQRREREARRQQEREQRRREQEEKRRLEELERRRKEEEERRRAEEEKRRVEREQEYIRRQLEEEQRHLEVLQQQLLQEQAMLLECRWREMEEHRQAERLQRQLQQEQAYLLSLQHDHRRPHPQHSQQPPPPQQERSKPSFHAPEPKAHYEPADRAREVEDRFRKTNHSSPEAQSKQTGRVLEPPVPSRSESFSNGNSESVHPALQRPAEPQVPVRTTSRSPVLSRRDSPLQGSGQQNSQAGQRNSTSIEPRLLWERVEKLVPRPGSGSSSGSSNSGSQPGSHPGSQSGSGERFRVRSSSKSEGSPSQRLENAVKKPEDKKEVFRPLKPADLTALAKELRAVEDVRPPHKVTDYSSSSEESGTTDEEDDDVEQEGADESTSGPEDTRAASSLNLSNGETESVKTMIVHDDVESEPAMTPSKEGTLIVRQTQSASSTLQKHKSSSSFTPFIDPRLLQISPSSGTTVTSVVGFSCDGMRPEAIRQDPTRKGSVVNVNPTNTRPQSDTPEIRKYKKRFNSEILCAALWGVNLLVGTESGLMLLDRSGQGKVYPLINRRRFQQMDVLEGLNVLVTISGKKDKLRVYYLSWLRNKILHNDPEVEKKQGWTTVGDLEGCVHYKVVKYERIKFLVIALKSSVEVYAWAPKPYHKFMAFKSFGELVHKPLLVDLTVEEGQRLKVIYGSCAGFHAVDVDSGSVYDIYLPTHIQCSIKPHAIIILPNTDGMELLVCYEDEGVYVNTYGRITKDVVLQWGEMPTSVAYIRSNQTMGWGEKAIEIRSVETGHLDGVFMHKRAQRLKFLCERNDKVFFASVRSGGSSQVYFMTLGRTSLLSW
Chain of Leucine-rich repeat serine/threonine-protein kinase 2 (Q5S007 whole entry): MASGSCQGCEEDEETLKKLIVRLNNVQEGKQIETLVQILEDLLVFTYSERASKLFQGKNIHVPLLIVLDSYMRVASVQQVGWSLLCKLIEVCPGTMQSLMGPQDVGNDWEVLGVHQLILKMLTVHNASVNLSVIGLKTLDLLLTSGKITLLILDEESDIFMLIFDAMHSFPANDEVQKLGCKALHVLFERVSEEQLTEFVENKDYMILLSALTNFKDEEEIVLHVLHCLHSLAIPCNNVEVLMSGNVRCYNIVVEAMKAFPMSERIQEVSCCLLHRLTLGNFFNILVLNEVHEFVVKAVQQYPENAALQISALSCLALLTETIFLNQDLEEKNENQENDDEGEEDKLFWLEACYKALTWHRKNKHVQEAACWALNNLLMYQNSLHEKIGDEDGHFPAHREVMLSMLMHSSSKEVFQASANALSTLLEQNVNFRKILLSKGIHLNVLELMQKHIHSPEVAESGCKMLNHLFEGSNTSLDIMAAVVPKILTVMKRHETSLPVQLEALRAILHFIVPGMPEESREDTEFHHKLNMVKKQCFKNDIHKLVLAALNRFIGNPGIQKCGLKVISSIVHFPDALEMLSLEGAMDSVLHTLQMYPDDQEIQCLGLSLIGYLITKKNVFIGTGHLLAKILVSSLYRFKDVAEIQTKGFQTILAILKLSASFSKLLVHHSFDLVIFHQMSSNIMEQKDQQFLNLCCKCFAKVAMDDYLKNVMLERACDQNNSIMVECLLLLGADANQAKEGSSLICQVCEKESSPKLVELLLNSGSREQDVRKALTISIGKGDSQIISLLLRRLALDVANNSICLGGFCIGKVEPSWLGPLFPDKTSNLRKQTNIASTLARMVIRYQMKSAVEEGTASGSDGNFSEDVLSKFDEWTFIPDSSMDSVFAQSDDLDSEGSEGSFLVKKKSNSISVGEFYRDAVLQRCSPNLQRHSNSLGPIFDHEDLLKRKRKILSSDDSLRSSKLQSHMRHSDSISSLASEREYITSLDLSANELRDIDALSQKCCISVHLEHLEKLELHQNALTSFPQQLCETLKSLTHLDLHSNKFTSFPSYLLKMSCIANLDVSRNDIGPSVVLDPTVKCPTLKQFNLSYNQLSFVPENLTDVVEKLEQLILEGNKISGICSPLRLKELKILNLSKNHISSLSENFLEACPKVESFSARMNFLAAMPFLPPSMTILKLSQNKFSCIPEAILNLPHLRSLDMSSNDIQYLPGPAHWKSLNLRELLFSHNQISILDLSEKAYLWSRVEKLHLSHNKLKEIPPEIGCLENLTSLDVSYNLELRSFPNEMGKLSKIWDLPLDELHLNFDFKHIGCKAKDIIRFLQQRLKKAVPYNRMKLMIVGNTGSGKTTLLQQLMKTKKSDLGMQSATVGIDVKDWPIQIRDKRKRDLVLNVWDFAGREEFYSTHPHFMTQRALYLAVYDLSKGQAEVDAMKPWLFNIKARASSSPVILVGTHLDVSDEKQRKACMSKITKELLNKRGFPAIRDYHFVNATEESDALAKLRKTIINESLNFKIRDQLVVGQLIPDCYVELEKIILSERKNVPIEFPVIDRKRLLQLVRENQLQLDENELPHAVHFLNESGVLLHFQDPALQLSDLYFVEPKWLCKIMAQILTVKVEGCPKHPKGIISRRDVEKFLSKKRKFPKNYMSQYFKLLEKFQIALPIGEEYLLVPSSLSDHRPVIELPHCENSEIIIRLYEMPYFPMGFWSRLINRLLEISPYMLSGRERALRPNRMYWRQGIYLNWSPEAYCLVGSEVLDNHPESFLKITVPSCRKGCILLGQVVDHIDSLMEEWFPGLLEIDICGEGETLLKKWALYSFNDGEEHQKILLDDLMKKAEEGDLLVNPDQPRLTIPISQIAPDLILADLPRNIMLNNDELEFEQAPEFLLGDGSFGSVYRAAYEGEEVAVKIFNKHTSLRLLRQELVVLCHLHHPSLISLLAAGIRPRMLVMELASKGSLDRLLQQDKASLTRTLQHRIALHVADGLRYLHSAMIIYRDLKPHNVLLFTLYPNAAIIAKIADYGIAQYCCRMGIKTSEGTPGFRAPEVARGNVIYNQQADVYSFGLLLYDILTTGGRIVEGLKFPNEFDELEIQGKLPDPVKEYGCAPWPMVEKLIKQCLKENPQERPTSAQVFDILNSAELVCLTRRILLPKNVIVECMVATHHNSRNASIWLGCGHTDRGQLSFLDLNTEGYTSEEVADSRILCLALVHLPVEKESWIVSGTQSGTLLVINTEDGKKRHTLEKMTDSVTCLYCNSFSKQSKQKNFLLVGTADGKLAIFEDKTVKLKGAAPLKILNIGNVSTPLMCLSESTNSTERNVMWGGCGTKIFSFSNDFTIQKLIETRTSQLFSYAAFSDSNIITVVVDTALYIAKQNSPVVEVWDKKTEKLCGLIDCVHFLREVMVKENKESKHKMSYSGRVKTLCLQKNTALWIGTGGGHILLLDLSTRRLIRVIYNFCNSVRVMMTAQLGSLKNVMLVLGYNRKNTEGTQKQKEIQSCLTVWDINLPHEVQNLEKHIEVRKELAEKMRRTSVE
Chain of Latent membrane protein 1 (P03230 whole entry, the tested form may be a part): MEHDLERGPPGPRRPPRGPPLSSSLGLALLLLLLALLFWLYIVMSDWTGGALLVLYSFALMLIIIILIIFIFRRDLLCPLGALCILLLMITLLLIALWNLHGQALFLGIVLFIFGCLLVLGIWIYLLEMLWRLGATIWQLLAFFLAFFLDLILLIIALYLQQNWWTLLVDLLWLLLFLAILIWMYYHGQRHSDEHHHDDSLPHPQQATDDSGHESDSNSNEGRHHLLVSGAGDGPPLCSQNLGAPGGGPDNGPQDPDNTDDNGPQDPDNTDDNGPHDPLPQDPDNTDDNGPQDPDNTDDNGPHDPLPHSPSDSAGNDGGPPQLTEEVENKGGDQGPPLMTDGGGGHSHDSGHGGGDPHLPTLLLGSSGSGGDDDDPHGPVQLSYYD
Chain of Leukocyte tyrosine kinase receptor (P29376 whole entry): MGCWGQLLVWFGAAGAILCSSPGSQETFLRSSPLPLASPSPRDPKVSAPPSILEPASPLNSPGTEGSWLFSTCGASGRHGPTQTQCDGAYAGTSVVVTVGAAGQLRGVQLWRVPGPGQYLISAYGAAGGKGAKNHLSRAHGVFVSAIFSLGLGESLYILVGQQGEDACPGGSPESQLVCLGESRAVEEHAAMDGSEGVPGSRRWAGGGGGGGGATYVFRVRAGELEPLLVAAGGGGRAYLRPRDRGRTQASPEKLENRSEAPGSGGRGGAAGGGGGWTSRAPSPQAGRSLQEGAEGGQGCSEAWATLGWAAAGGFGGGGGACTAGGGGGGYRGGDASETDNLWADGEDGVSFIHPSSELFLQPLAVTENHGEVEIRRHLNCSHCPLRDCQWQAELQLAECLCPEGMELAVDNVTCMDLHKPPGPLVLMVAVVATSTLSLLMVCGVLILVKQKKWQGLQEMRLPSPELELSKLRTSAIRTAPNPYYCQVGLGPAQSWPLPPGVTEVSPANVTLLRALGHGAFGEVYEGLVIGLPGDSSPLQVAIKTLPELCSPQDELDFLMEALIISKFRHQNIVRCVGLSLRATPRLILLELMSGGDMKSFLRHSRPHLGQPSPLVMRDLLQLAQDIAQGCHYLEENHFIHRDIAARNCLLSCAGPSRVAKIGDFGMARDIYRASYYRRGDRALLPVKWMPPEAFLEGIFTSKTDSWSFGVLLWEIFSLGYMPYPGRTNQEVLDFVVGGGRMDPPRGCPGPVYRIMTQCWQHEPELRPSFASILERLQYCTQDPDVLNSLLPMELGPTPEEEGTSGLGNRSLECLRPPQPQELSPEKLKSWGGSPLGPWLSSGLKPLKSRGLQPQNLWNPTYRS

Compound: CCCCNc1c(-c2ccc3[nH]ncc3c2)nc2ncccn12
Ki [1]: 501 nM (active) | Ki [2]: 10 nM (active) | Ki [3]: 100 nM (active) | Ki [4]: > 10000 nM (inactive) | Ki [5]: 15.8 nM (active) | Ki [6]: 1000 nM (active) | Ki [7]: 3.98 nM (active) | Ki [8]: 1580 nM (active)

Compound: COc1ccc(-c2c(Br)cnn(Cc3cccc4ccccc34)c2=O)cc1
IC50 [17]: 974 nM (active) | IC50 [18]: 974 nM (active)

Compound: CC(=O)N1c2ccc(S(=O)(=O)N3CCC(C(=O)N4CCN(c5ccc(Cl)cc5)CC4)CC3)cc2CC1C (stereo not drawn)
AC50 (HEK293): 1010 nM (active) | AC50 [20]: 108000 nM (active)

Compound: CC(O)CN(CC(C)O)c1ccc2c(c1)Cc1cc([N+](=O)[O-])ccc1-2 (stereo not drawn)
IC50 (CHO): > 49800 nM (inactive) | IC50 (Beta Lactamase): 5090 nM (active) | EC50 [21]: 870 nM (active)

Compound: CN1CCC(Oc2ccccc2Sc2ccc(C(F)(F)F)cc2)CC1
IC50 (Melanocortin receptor 4): > 64600 nM (inactive) | IC50 [22]: > 64600 nM (inactive)

The next lines start with results.

IC50 (Caspase-3): > 99000 nM (inactive) | IC50 [10]: > 99000 nM (inactive) | IC50 [11]: > 99000 nM (inactive)
Compound: Clc1ccc(/C=N/Nc2cc(N3CCOCC3)nc(N3CCOCC3)n2)c(Cl)c1
IC50 [9]: > 99000 nM (inactive)

Ki [12]: > 2510 nM (inactive) | Ki [13]: > 2000 nM (inactive) | Ki [14]: 2510 nM (active) | Ki [15]: 2510 nM (active) | Ki [16]: > 2510 nM (inactive)
Compound: CC(=O)c1c(C)c2cnc(Nc3ccc(N4CCNCC4)cn3)nc2n(C2CCCC2)c1=O [PALBOCICLIB]

Ki (LIM domain kinase 1): 2000 nM (active) | Ki [19]: 2510 nM (active)
Compound: Clc1ccc2c(c1)NC1(CCCCC1)N2

— ChEMBL document CHEMBL1201862, “PubChem BioAssay data set” (2004)
